# Literature values, collected in US12178826B2, “Formulations for the delivery of autophagy stimulating trehalose” (priority 2017, dated 2024).
# Assays:
# [1] = system: mutant SOD1 transgenic mice; details: Trehalose administration
# [2] = system: NSC34 motoneuron cells
# [3] = after inhalation; general statement, no test described
smiles,measurement,setting,value
"OC[C@H]1O[C@H](O[C@H]2O[C@H](CO)[C@@H](O)[C@H](O)[C@H]2O)[C@H](O)[C@@H](O)[C@@H]1O [Trehalose, (2R,3S,4S,5R,6R)-2-(Hydroxymethyl)-6-[(2R,3R,4S,5S,6R)-3,4,5-trihydroxy-6-(hydroxymethyl)oxan-2-yl]oxyoxane-3,4,5-triol]",accumulation of SOD1 aggregates,[1],decreased accumulation of SOD1 aggregates
same,life span,[1],significantly prolonged life span
same,motoneuron survival,[1],enhanced motoneuron survival
same,mutant SOD1 degradation by autophagy,[2],led to mutant SOD1 degradation by autophagy
same,time to absorption from the lungs into the bloodstream,[3],≤ 2 h
